Measurements: ChEMBL document CHEMBL1148227, “Biosynthesis of vitamin B6: direct identification of the product of the PdxA-catalyzed oxidation of 4-hydroxy-l-threonine-4-phosphate using electrospray ionization mass spectrometry” (Bioorg Med Chem Lett, 2004)

Tests used:
Type in all cases: ADME
Details in all cases: buffer
[1] = Half life at pH 5.9
[2] = Half life at pH 8.1
[3] = Half life at pH 7.8

half-life [1] [min] | half-life [2] [min] | half-life [3] [min] | SMILES
8.57 | 15.2 |  | CC(=O)C(N)C(=O)O (stereo not drawn)
 |  | 10 | NC(C(=O)O)C(=O)COP(=O)(O)O (stereo not drawn)
